Patent US8598211B2, “Carboxamide compounds and their use as calpain inhibitors IV” (AbbVie Inc., priority 2009, dated 2013)

Tests used:
Format in all cases: biochemical
[1] = target: T1, calpain-I (Homo sapiens, UniProt P07384); assay: Calpain I kinetic fluorescence enzyme inhibition assay; conditions: calpain-I from human erythrocytes, Suc-Leu-Tyr-AMC, pH 7.3; apparent Ki from IC50 by Cheng-Prussoff
T1 construct: calpain-I—isolated from human erythrocytes; purchased Calbiochem 208713; host or cells: human erythrocytes (natural source)
T1 sequence (P07384 1-714): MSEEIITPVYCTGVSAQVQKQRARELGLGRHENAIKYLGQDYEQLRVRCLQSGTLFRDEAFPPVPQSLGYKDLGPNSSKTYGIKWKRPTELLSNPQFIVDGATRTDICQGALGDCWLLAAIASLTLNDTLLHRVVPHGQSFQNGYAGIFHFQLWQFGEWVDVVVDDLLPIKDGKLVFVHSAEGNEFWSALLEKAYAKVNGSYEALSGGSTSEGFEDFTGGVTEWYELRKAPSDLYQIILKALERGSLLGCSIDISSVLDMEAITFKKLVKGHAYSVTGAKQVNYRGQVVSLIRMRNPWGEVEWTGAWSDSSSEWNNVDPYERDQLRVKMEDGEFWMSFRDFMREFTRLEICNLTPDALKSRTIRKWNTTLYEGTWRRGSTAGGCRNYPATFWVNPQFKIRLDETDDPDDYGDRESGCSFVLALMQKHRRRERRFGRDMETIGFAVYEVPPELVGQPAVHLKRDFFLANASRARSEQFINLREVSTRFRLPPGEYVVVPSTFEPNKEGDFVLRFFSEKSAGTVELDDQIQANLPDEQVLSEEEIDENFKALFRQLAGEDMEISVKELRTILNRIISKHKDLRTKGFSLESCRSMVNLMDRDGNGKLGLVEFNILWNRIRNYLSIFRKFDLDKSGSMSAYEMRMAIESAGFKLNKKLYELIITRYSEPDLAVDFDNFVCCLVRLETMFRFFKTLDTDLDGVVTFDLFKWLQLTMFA
T1 sequence (P04632 1-268 partner): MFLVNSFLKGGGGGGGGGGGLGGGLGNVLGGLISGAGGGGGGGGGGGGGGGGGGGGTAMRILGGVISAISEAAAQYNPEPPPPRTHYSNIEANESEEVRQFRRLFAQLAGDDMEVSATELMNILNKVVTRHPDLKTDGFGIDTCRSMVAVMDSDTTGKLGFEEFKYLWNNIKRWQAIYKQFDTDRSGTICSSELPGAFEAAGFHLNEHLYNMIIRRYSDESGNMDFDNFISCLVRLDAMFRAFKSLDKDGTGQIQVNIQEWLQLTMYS
Procedure: Testing for blockade of the corresponding enzymic activities was carried out by means of kinetic fluorescence assays (excitation 390 nm, emission 460 nm).
Apparent Ki values were calculated from the experimentally determined IC50 values by the Cheng-Prussoff relation assuming a reversible competitive enzyme inhibition.
20 nM calpain-I—isolated from human erythrocytes (Calbiochem #208713), 100 μM Suc-Leu-Tyr-AMC (Bachem #I-1355) as substrate in buffer with 62 mM imidazole, 0.3 mM CaCl2, 0.10% CHAPS, 0.05% BSA, 1 mM DTT at pH 7.3 and room temperature.

[2] = target: T2, cathepsin B (Homo sapiens, UniProt P07858); assay: Cathepsin B kinetic fluorescence enzyme inhibition assay; conditions: selectivity ratio versus calpain
T2 construct: cathepsin B—isolated from human liver; purchased Calbiochem 219362; host or cells: human liver (natural source)
Procedure: 0.25 nM cathepsin B—isolated from human liver (Calbiochem #219362), 100 μM Z-Phe-Arg-AMC (Bachem #I-1160) as substrate 50 mM MES, 2 mM EDTA, 0.05% Brij 35, 2.5 mM L-cysteine, pH 6.0, room temperature.

[3] = target: T3, cathepsin K (Homo sapiens, UniProt P43235); assay: Cathepsin K kinetic fluorescence enzyme inhibition assay; conditions: selectivity ratio versus calpain
T3 construct: purchased Calbiochem 342001; host or cells: E. coli
T3 sequence (P43235 115-329): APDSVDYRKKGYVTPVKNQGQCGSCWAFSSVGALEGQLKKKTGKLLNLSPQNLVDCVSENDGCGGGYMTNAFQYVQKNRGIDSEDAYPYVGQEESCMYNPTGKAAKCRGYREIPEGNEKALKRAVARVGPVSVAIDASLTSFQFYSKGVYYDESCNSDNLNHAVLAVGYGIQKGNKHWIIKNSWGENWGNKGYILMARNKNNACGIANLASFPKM
Procedure: 3 nM cathepsin K—activated from recombinant human procathepsin K from E. coli (Calbiochem #342001), 10 μM Z-Gly-Pro-Arg-AMC (Biomol #P-142) as substrate in 50 mM MES, 2 mM EDTA, 0.05% Brij 35, 2.5 mM L-cysteine, pH 6.0, room temperature.

[4] = target: T4, cathepsin L (Homo sapiens, UniProt P07711); assay: Cathepsin L kinetic fluorescence enzyme inhibition assay; conditions: selectivity ratio versus calpain
T4 construct: cathepsin L—isolated from human liver; purchased Calbiochem 219402; host or cells: human liver (natural source)
T4 sequence (P07711 114-333): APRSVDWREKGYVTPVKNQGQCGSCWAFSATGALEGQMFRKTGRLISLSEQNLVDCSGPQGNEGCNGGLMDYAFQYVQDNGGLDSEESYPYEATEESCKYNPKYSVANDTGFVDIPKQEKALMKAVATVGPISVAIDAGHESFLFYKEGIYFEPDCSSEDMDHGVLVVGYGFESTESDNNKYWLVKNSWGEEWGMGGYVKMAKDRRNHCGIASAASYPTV
Procedure: 1 nM cathepsin L—isolated from human liver (Calbiochem #219402), 2 μM Z-Phe-Arg-AMC (Bachem #I-1160) as substrate in 50 mM MES, 2 mM EDTA, 0.05% Brij 35, 2.5 mM L-cysteine, pH 6.0, room temperature.

[5] = target: T5, cathepsin S (Homo sapiens, UniProt P25774); assay: Cathepsin S kinetic fluorescence enzyme inhibition assay; conditions: selectivity ratio versus calpain
T5 construct: purchased Calbiochem 219343; host or cells: E. coli
T5 sequence (P25774 115-331): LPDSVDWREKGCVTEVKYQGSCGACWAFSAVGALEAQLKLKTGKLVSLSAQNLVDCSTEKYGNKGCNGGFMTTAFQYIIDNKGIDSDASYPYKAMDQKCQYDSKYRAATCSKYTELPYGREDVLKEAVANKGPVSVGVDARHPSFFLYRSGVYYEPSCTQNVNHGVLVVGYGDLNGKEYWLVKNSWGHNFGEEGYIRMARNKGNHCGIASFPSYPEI
Procedure: 0.5 nM recombinant human cathepsin S from E. coli (Calbiochem #219343), 20 μM Z-Val-Val-Arg-AMC (Bachem #I-1540) as substrate in 50 mM MES, 2 mM EDTA, 0.05% Brij 35, 2.5 mM L-cysteine, pH 6.0, room temperature.

Row | Ki [1] | Sel cat. B (Ki(cathepsin B)/Ki(calpain) ratio) [2] | Sel cat. K (Ki(cathepsin K)/Ki(calpain) ratio) [3] | Sel cat. L (Ki(cathepsin L)/Ki(calpain) ratio) [4] | Sel cat. S (Ki(cathepsin S)/Ki(calpain) ratio) [5] | Compound
1 | 400 to 800 nM | + (5≦Ki(cathepsin B)/Ki(calpain)≦9) | ++ (9<Ki(cathepsin K)/Ki(calpain)≦30) | ++ (10<Ki(cathepsin L)/Ki(calpain)≦50) | ++ (10<Ki(cathepsin S)/Ki(calpain)≦50) | O=C(NC1CC1)C(=O)C(Cc1ccccc1)NC(=O)c1cccnc1-n1ccc(-c2cccc(N3CCOCC3)c2)n1 (stereo not drawn) [Example 26, N-[4-(Cyclopropylamino)-3,4-dioxo-1-phenyl-2-butanyl]-2-{3-[3-(4-morpholinyl)phenyl]-1H-pyrazol-1-yl}nicotinamide]
2 | 250 to 400 nM | ++ (9<Ki(cathepsin B)/Ki(calpain)≦30) | ++ (9<Ki(cathepsin K)/Ki(calpain)≦30) | ++ (10<Ki(cathepsin L)/Ki(calpain)≦50) | ++ (10<Ki(cathepsin S)/Ki(calpain)≦50) | O=C(NCCc1ccccn1)C(=O)C(Cc1ccccc1)NC(=O)c1cccnc1-n1ccc(-c2ccc(F)cc2)n1 (stereo not drawn) [Example 3, N-(3,4-Dioxo-1-phenyl-4-{[2-(pyridin-2-yl)ethyl]amino}butan-2-yl)-2-[3-(4-fluorophenyl)-1H-pyrazol-1-yl]pyridine-3-carboxamide]
3 | 250 to 400 nM | ++ (9<Ki(cathepsin B)/Ki(calpain)≦30) | ++ (9<Ki(cathepsin K)/Ki(calpain)≦30) | ++ (10<Ki(cathepsin L)/Ki(calpain)≦50) | ++ (10<Ki(cathepsin S)/Ki(calpain)≦50) | O=C(NCCc1ccccc1)C(=O)C(Cc1ccccc1)NC(=O)c1cccnc1-n1ccc(-c2ccc(F)cc2)n1 (stereo not drawn) [Example 1, N-{3,4-Dioxo-1-phenyl-4-[(2-phenylethyl)amino]butan-2-yl}-2-[3-(4-fluorophenyl)-1H-pyrazol-1-yl]pyridine-3-carboxamide]
4 | 250 to 400 nM | ++ (9<Ki(cathepsin B)/Ki(calpain)≦30) | ++ (9<Ki(cathepsin K)/Ki(calpain)≦30) | ++ (10<Ki(cathepsin L)/Ki(calpain)≦50) | ++ (10<Ki(cathepsin S)/Ki(calpain)≦50) | COc1ccc(CC(NC(=O)c2cccnc2-n2ccc(-c3ccccc3)n2)C(=O)C(=O)NC2CC2)cc1 (stereo not drawn) [Example 22, N-[4-(Cyclopropylamino)-1-(4-methoxyphenyl)-3,4-dioxo-2-butanyl]-2-(3-phenyl-1H-pyrazol-1-yl)nicotinamide]
5 | 800 to 1000 nM | ++ (9<Ki(cathepsin B)/Ki(calpain)≦30) | ++ (9<Ki(cathepsin K)/Ki(calpain)≦30) | ++ (10<Ki(cathepsin L)/Ki(calpain)≦50) | ++ (10<Ki(cathepsin S)/Ki(calpain)≦50) | O=C(NCc1nc2ccccc2[nH]1)C(=O)C(Cc1ccccc1)NC(=O)c1cccnc1-n1ccc(-c2ccccc2)n1 (stereo not drawn) [Example 20, N-{4-[(1H-Benzimidazol-2-ylmethyl)amino]-3,4-dioxo-1-phenyl-2-butanyl}-2-(3-phenyl-1H-pyrazol-1-yl)nicotinamide]

Row | Compound | Ki [1] | Sel cat. B (Ki(cathepsin B)/Ki(calpain) ratio) [2] | Sel cat. K (Ki(cathepsin K)/Ki(calpain) ratio) [3] | Sel cat. L (Ki(cathepsin L)/Ki(calpain) ratio) [4] | Sel cat. S (Ki(cathepsin S)/Ki(calpain) ratio) [5]
6 | O=C(NC1CC1)C(=O)C(Cc1ccccc1)NC(=O)[C@H]1CCC(=O)N1Cc1ccccc1F (mixture of isomers) [Example 30, (2R)—N-(4-(cyclopropylamino)-3,4-dioxo-1-phenylbutan-2-yl)-1-(2-fluorobenzyl)-5-oxopyrrolidine-2-carboxamide] | 400 to 800 nM | ++ (9<Ki(cathepsin B)/Ki(calpain)≦30) | +++ (Ki(cathepsin K)/Ki(calpain) ratio of >30) | ++ (10<Ki(cathepsin L)/Ki(calpain)≦50) | +++ (Ki(cathepsin S)/Ki(calpain) ratio of >50)
